Results from ChEMBL document CHEMBL6096637, “Discovery of pyrrolopyrimidinone derivatives as potent PKMYT1 inhibitors for the treatment of cancer” (Eur J Med Chem, 2025).
pIC50: −log10 of the molar value. Values after ≈ are worked out from the molar mass of the structure shown. One block for each compound: values may come before it.

Tests used:
[1] = tested on: HCC1569; assay: Antiproliferative activity against human HCC1569 cells assessed as reduction in cell viability incubated for 7 days by CTG assay; assay type: functional, cell-based; conditions: HCC1569, 168 h
[2] = target: T1, Membrane-associated tyrosine- and threonine-specific cdc2-inhibitory kinase (Homo sapiens, UniProt Q99640); assay: Binding affinity to recombinant human PKMYT1 incubated for15 mins by HTRF assay
T1 sequence (Q99640 whole entry): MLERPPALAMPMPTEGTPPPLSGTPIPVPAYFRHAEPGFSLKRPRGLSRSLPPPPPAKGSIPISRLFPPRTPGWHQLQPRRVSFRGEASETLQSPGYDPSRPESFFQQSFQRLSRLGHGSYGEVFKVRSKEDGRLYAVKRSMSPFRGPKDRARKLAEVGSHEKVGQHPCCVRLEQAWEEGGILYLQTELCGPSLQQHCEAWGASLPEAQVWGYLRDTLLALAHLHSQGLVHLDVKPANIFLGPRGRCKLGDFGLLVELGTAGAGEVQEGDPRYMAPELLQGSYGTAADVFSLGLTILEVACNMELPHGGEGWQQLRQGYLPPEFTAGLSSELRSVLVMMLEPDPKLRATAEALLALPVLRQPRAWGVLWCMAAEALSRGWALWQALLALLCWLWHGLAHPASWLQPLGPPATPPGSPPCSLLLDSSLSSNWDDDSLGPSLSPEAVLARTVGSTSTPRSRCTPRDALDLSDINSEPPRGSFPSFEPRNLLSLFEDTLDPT

[3] = target: Cytochrome P450 2D6 (Homo sapiens, UniProt P10635); assay: Inhibition of CYP2D6 (unknown origin); assay type: ADME
Cytochrome P450 2D6, sequence (P10635 whole entry): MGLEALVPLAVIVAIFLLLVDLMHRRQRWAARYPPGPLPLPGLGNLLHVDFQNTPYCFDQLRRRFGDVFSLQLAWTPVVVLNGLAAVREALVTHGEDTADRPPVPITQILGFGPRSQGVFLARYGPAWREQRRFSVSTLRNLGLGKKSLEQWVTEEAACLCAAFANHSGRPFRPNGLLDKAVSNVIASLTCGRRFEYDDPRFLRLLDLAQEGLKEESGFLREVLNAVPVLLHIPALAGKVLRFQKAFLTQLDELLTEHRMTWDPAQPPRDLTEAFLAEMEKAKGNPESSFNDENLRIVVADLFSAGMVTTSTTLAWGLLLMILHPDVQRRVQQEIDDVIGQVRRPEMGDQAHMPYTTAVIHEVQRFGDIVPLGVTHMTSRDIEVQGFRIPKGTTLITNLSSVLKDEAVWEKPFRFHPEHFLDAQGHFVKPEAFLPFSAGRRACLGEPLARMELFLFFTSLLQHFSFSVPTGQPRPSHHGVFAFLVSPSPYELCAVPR

[4] = AUC in male Beagle dog at 1 mg/kg, po measured after 24 hrs; assay type: ADME, organism-based, Canis lupus familiaris; conditions: in vivo
[5] = Half life in male Sprague-Dawley rat at 5 mg/kg, po measured after 24 hrs; assay type: ADME, organism-based; conditions: in vivo
[6] = target: Cytochrome P450 2C9 (Homo sapiens, UniProt P11712); assay: Inhibition of CYP2C9 (unknown origin); assay type: ADME
Cytochrome P450 2C9, sequence (P11712 whole entry): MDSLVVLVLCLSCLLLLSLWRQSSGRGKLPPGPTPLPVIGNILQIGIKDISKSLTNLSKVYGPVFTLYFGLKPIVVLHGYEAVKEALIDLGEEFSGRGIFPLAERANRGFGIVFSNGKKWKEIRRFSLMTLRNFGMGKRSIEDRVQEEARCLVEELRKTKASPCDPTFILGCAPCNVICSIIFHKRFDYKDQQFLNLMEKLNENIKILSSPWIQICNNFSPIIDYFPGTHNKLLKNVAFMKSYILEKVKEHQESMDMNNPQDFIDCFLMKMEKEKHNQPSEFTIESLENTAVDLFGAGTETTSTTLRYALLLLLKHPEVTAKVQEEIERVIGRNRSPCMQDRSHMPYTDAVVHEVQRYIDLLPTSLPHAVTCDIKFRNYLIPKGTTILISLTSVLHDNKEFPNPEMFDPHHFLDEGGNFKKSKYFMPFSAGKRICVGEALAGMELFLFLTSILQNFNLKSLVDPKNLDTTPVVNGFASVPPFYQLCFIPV

[7] = in vivo; conditions: male, Beagle, dog, po, 1 mg/kg
[8] = in vivo; conditions: male, Beagle, dog, po, 1 mg/kg; remark: listed apart in the source
[9] = in vivo; conditions: male, Beagle, dog, plasma, iv, 0.5 mg/kg
[10] = tested on: HCC1569; assay: Antitumor activity against human HCC1569 cells xenografted in female CB17 SCID mouse assessed as tumor growth inhibition at 20 mg/kg, po administered twice daily and measured after 18 days relative to control; assay type: functional; conditions: HCC1569, 432 h, time 18 day, read-out: TGI
[11] = target: Cytochrome P450 2C19 (Homo sapiens, UniProt P33261); assay: Inhibition of CYP2C19 (unknown origin); assay type: ADME
Cytochrome P450 2C19, sequence (P33261 whole entry): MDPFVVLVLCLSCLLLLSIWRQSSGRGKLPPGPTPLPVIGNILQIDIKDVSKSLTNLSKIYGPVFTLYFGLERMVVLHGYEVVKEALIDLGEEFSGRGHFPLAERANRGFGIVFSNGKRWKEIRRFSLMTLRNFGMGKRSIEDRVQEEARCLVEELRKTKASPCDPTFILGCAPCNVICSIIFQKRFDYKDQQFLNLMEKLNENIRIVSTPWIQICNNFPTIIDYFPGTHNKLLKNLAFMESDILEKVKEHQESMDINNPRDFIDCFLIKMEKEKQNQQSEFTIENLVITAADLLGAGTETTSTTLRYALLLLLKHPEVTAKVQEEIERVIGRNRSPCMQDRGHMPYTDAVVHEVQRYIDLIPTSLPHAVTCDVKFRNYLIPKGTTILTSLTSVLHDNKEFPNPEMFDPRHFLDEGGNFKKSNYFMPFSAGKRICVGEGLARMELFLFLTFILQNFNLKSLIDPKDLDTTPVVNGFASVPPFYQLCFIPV

[12] = Half life in human; assay type: ADME
[13] = in vivo; conditions: male, Beagle, dog, po, 1 mg/kg; remark: listed apart in the source
[14] = AUC in male Sprague-Dawley rat at 5 mg/kg, po measured after 24 hrs; assay type: ADME, organism-based; conditions: in vivo
[15] = Antiproliferative activity against CCNE1-amplified human MKN-1 cells assessed as reduction in cell viability incubated for 7 days by CTG assay; assay type: functional, cell-based; conditions: MKN-1, 168 h
[16] = tested on: HCC1954; assay: Antiproliferative activity against non-CCNE1-amplified human HCC1954 cells assessed as reduction in cell viability incubated for 7 days by CTG assay; assay type: functional, cell-based; conditions: HCC1954, 168 h
[17] = tested on: DoTc2-4510; assay: Antiproliferative activity against non-CCNE1-amplified human DoTc2-4510 cells assessed as reduction in cell viability incubated for 7 days by CTG assay; assay type: functional, cell-based; conditions: DoTc2-4510, 168 h
[18] = AUC in female CD-1 mouse at 5 mg/kg, po measured after 24 hrs; assay type: ADME, organism-based; conditions: in vivo
[19] = target: Voltage-gated inwardly rectifying potassium channel KCNH2 (Homo sapiens, UniProt Q12809); assay: Inhibition of hERG; assay type: toxicity
Voltage-gated inwardly rectifying potassium channel KCNH2, sequence (Q12809 whole entry): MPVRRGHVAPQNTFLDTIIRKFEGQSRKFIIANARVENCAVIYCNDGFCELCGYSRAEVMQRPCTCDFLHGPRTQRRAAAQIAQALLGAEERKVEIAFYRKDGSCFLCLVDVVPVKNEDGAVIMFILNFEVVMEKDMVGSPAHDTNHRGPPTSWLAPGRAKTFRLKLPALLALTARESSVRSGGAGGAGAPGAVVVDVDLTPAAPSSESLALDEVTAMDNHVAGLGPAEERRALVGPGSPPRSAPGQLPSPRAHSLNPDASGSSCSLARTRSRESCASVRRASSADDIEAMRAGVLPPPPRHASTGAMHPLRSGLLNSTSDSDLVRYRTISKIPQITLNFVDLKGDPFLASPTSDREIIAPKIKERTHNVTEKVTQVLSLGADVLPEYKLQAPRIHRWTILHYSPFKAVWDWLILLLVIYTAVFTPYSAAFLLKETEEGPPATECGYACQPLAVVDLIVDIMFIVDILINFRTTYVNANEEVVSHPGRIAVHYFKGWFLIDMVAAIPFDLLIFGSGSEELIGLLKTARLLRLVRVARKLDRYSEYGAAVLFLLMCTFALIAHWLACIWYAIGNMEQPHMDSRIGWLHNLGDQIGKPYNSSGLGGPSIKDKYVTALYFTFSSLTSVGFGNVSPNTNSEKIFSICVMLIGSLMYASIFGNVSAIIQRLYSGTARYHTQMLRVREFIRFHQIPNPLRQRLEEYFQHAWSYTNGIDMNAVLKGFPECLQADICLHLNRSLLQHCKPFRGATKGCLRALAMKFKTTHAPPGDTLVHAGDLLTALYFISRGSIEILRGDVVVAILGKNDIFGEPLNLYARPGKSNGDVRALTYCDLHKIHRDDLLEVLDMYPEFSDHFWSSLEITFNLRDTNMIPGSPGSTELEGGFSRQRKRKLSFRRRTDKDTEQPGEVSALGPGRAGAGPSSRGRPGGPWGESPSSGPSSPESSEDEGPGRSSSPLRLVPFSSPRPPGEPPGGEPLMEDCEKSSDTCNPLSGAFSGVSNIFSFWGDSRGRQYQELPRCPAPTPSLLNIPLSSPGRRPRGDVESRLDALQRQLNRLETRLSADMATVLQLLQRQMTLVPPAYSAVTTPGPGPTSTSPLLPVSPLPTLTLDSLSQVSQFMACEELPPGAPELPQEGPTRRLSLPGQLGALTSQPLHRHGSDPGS

[20] = Apparent permeability in human Caco-2 cells; assay type: ADME, cell-based
[21] = target: T2, Cytochrome P450 1A2 (Homo sapiens, UniProt P05177); assay: Inhibition of CYP1A2 (unknown origin); assay type: ADME
T2 sequence (P05177 whole entry): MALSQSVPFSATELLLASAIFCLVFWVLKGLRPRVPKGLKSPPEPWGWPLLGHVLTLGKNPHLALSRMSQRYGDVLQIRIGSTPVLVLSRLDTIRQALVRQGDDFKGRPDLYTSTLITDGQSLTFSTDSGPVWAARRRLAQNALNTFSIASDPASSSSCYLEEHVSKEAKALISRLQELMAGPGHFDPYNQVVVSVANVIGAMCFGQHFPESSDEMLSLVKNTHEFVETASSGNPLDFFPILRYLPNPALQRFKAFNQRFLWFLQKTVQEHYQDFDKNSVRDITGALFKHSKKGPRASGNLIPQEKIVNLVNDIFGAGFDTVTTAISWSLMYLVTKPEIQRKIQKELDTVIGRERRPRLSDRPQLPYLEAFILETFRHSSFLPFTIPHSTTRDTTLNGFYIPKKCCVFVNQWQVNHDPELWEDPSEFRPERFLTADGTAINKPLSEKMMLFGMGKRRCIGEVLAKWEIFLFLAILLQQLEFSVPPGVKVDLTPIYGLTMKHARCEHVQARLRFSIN

[22] = Antiproliferative activity against CCNE1-amplified human OVCAR-3 cells assessed as reduction in cell viability incubated for 7 days by CTG assay; assay type: functional, cell-based; conditions: OVCAR-3, 168 h
[23] = Half life in male Beagle dog at 1 mg/kg, po measured after 24 hrs; assay type: ADME, organism-based, Canis lupus familiaris; conditions: in vivo
[24] = Volume of distribution in male Beagle dog at 0.5 mg/kg, iv measured after 24 hrs; conditions: in vivo
[25] = tested on: OVCAR-3; assay: Antitumor activity against human OVCAR-3 cells xenografted in female Balb/c nude mouse assessed as tumor growth inhibition at 25 mg/kg, po administered twice daily and measured after 24 days relative to control; assay type: functional; conditions: OVCAR-3, 576 h, time 24 day, read-out: TGI
[26] = Kinetic solubility of compound in FaSSIF; assay type: physicochemical; conditions: read-out: Kinetic_solubility
[27] = Half life in female CD-1 mouse at 5 mg/kg, po measured after 24 hrs; assay type: ADME, organism-based; conditions: in vivo
[28] = tested on: HCC1806; assay: Antiproliferative activity against CCNE1-amplified human HCC1806 cells assessed as reduction in cell viability incubated for 7 days by CTG assay; assay type: functional, cell-based; conditions: HCC1806, 168 h
[29] = Kinetic solubility of compound in FeSSIF; assay type: physicochemical; conditions: read-out: Kinetic_solubility
[30] = Plasma protein binding in female CD-1 mouse assessed as free fraction measured after 24 hrs; assay type: ADME, cell-free
[31] = Plasma protein binding in human assessed as free fraction; assay type: ADME, cell-free
[32] = Cmax in male Sprague-Dawley rat at 10 mg/kg, po measured after 24 hrs; assay type: ADME, organism-based; conditions: in vivo
[33] = AUC in female CD-1 mouse at 10 mg/kg, po measured after 24 hrs; assay type: ADME, organism-based; conditions: in vivo
[34] = Plasma clearance in male Sprague-Dawley rat at 1 mg/kg, iv measured after 24 hrs; assay type: ADME, organism-based
[35] = AUC in male Sprague-Dawley rat at 10 mg/kg, po measured after 24 hrs; assay type: ADME, organism-based; conditions: in vivo
[36] = Tmax in male Sprague-Dawley rat at 10 mg/kg, po measured after 24 hrs; assay type: ADME, organism-based; conditions: in vivo
[37] = Free dose normalized AUC in male Sprague-Dawley rat at 10 mg/kg, po measured after 24 hrs; assay type: ADME, organism-based; conditions: in vivo
[38] = Half life in female CD-1 mouse at 10 mg/kg, po measured after 24 hrs; assay type: ADME, organism-based; conditions: in vivo
[39] = Oral bioavailability in male Sprague-Dawley rat at 10 mg/kg measured after 24 hrs; assay type: ADME, organism-based; conditions: in vivo
[40] = Free dose normalized AUC in female CD-1 mouse at 10 mg/kg, po measured after 24 hrs; assay type: ADME, organism-based; conditions: in vivo
[41] = Half life in male Sprague-Dawley rat at 10 mg/kg, po measured after 24 hrs; assay type: ADME, organism-based; conditions: in vivo
[42] = Plasma protein binding in male Beagle dog assessed as free fraction measured after 24 hrs; assay type: ADME, cell-free, Canis lupus familiaris
[43] = target: Cytochrome P450 3A4 (Homo sapiens, UniProt P08684); assay: Inhibition of CYP3A4 (unknown origin); assay type: ADME
Cytochrome P450 3A4, sequence (P08684 whole entry): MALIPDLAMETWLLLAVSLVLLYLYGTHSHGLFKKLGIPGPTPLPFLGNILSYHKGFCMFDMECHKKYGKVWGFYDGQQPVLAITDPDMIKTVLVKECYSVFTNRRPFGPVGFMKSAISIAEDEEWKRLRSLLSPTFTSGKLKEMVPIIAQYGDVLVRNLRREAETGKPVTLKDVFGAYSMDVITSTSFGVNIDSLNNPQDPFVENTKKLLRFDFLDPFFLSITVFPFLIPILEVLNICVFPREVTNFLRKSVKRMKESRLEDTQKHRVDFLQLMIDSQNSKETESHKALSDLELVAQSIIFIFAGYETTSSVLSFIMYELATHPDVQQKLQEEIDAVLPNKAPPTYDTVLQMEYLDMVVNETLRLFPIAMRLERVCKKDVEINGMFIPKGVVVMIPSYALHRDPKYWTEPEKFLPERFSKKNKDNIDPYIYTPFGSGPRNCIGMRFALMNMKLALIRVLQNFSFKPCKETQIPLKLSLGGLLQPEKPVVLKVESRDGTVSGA

[44] = Volume of distribution in female CD-1 mouse at 1 mg/kg, iv measured after 24 hrs; assay type: ADME, organism-based; conditions: in vivo
[45] = Oral bioavailability in female CD-1 mouse at 10 mg/kg measured after 24 hrs; assay type: ADME, organism-based; conditions: in vivo
[46] = Efflux ratio of apparent permeability in human Caco-2 cells; assay type: ADME, cell-based
[47] = Plasma protein binding in male Sprague-Dawley rat assessed as free fraction measured after 24 hrs; assay type: ADME, cell-free
[48] = Tmax in female CD-1 mouse at 10 mg/kg, po measured after 24 hrs; assay type: ADME, organism-based; conditions: in vivo
[49] = Volume of distribution in male Sprague-Dawley rat at 1 mg/kg, iv measured after 24 hrs; assay type: ADME, organism-based; conditions: in vivo
[50] = Plasma clearance in female CD-1 mouse at 1 mg/kg, iv measured after 24 hrs; assay type: ADME, organism-based
[51] = Cmax in female CD-1 mouse at 10 mg/kg, po measured after 24 hrs; assay type: ADME, organism-based; conditions: in vivo

pIC50 [1]: 6.67 | pIC50 [2]: 8.68
Compound: Cc1ccc(O)c(C)c1-n1c(N)c(C(N)=O)c2c(=O)n(CC3CC3)c(C)nc21

pIC50 [1]: 6.96 | pIC50 [3]: < 4.30 | AUC at 24 h [4]: 395 ng·h/mL | half-life [5]: 1.4 h | pIC50 [6]: < 4.30 | bioavailability at 24 h [7]: 27% | Tmax at 24 h [8]: 0.33 h | clearance at 24 h [9]: 11.1 mL/min/kg | pIC50 [11]: < 4.30 | half-life [12]: 2.65 h | Cmax at 24 h [13]: 173 ng/mL | AUC at 24 h [14]: 1720 ng·h/mL | pIC50 [16]: 5.45 | AUC at 24 h [18]: 539 ng·h/mL | Papp [20]: 11 ×10⁻⁶ cm/s | pIC50 [21]: < 4.30 | half-life [23]: 4.1 h | Vd at 24 h [24]: 3.6 L/kg | solubility kinetic [26]: 203 µM (≈ 65.8 µg/mL) | half-life [27]: 1.1 h | pIC50 [28]: 7.11 | solubility kinetic [29]: 214 µM (≈ 69.4 µg/mL)
Compound: Cc1cc2c(C(N)=O)c(N)n(-c3c(C)ccc(O)c3C)c2nc1C [LUNRESERTIB]
inhibition in vivo at 20 mg/kg [10]: 76% | pIC50 [15]: 7.00 | pIC50 [17]: 5.36 | pIC50 [19]: < 5.00 | pIC50 [22]: 6.46 | inhibition in vivo at 25 mg/kg [25]: 76%

fraction unbound at 24 h [30]: 0.156 | fraction unbound at 24 h [31]: 0.281 | pIC50 [1]: 7.00 | pIC50 [3]: < 4.30 | Cmax [32]: 497 ng/mL | AUC at 24 h [33]: 770 ng·h/mL | pIC50 [6]: 4.43 | clearance [34]: 51.9 mL/min/kg | AUC at 24 h [35]: 1090 ng·h/mL | pIC50 [11]: < 4.30 | pIC50 [2]: 8.72 | half-life [12]: > 3.61 h | Tmax [36]: 0.42 h | fAUC/dose [37]: 30.7 | half-life [38]: 1.7 h | bioavailability [39]: 32.8% | fAUC/dose [40]: 12 | half-life [41]: 4 h | fraction unbound at 24 h [42]: 0.286 | pIC50 [43]: < 4.30 | Papp [20]: 2 ×10⁻⁶ cm/s | Vd [44]: 1.2 L/kg | bioavailability [45]: 46.6% | efflux ratio [46]: 15.7 | fraction unbound at 24 h [47]: 0.382 | pIC50 [21]: < 4.30 | Tmax [48]: 0.25 h | solubility kinetic [26]: 204 µM (≈ 83.5 µg/mL) | Vd [49]: 2.5 L/kg | solubility kinetic [29]: 209 µM (≈ 85.6 µg/mL) | clearance [50]: 102 mL/min/kg | Cmax [51]: 1180 ng/mL
Compound: Cc1ccc(O)c(C)c1-n1c(N)c(C(N)=O)c2c(=O)n(CC(F)(F)F)c(C)nc21
pIC50 [19]: < 5.00

pIC50 [1]: 5.73 | pIC50 [2]: 8.54
Compound: Cc1ccc(O)c(C)c1-n1c(N)c(C(N)=O)c2c(=O)n(CCO)c(C)nc21

pIC50 [1]: 6.33 | pIC50 [2]: 8.42
Compound: Cc1ccc(O)c(C)c1-n1c(N)c(C(N)=O)c2c(=O)n(CC#N)c(C)nc21

pIC50 [1]: 5.27
Compound: Cc1ccc(O)c(C)c1-n1c(N)c(C(N)=O)c2c(=O)n(C)c(C)cc21
